For this experiment, the system named is Grb10 mRNA in TSC2−/− cells. The experiment in a line: Quantitative RT-PCR of Grb10 mRNA. Type of experiment: cell-based, mouse. The settings on record: three biological replicates. The source says:
FIG. 3. mTOR-mediated Grb10 phosphorylation is important for Grb10 stability. (A) Grb10 interacts with raptor, but not rictor. HA-tagged Grb10 was co-transfected with Myc-raptor or Myc-rictor in HEK293T cells. Cells were lysed in lysis buffer A, and the lysates were subjected to immunoprecipitation using anti-HA antibody conjugated beads. Raptor and rictor were probed with an antibody against the Myc-tag. (B) Grb10 is phosphorylated by mTOR in vitro. […] Phosphorylation of Grb10 at S501/S503 was detected by using the phospho-specific antibody against these two sites. (C) Long-term rapamycin treatment leads to Grb10 degradation in TSC2−/− cells. […] Grb10 is highly overexpressed in TSC2−/− cells. mRNA level was determined using quantitative RT-PCR based on three biological replicate experiments. […] Endogenous Grb10 was detected using an antibody that preferentially recognizes mouse Grb10 whereas the Grb10 DD mutant (of human origin) was detected using an anti-HA antibody. […]
Total cellular RNA was purified from cultured cells using the RNeasy mini kit (Qiagen) following the manufacturer's protocol. For quantitative real-time PCR (qRT-PCR), RNA was reverse-transcribed using the High-Capacity cDNA Reverse Transcription Kit (Applied Biosystems) according to the manufacturer's instructions. The resulting cDNA was analyzed by qRT-PCR using the QuantiTect SYBR Green qPCR System (Qiagen). […]

From patent US20130252950A1, “TARGETING MTOR SUBSTRATES IN TREATING PROLIFERATIVE DISEASES” (President and Fellows of Harvard College, priority 2010, published 2013) come the findings set out here.

With `CO[C@H]1C[C@@H]2CC[C@@H](C)[C@@](O)(O2)C(=O)C(=O)N2CCCC[C@H]2C(=O)O[C@H]([C@H](C)C[C@@H]2CC[C@@H](O)[C@H](OC)C2)CC(=O)[C@H](C)/C=C(\C)[C@@H](O)[C@@H](OC)C(=O)[C@H](C)C[C@H](C)/C=C/C=C/C=C/1C` [rapamycin], the “decrease in Grb10 mRNA levels after long-term rapamycin” value is recorded as “approximately 2 fold”.
